# Measurements: patent US10806730B2, “Methods of treating cancer with farnesyltransferase inhibitors” (Kura Oncology, Inc., priority 2017, dated 2020)
# What was measured:
# Format in all cases: in vivo, human
# [1] = system: higher risk MDS/CMML subjects; assay: Clinical study of tipifarnib (INT-28) in higher risk MDS/CMML
# Protocol: A clinical study of tipifarnib (300 mg bid (twice daily), 3 weeks on/1 week off) was conducted in 82 higher risk MDS/CMML subjects. 67 subjects were transfusion dependent (TD) at study entry, whereby a subject receiving one or several red blood cell (RBC) transfusions during screening and up to the first administration of tipifarnib was classified as TD.
# 30/67 (45%) MDS subjects were initially classified as having moderate to severe neutropenia, based on their absolute neutrophil count (ANC) of <1,000 cells/μl blood prior to receiving tipifarnib. The ANC of the remaining 37/67 (55%) MDS subjects was ≥1,000 cells/μl blood. 9/30 (30%) MDS subjects with moderate to severe neutropenia and 2/37 (5%) MDS subjects without moderate to severe neutropenia converted to transfusion independence during the tipifarnib study. […] The majority of the subjects that developed transfusion independence were of intermediate (INT) risk of developing AML.
# [2] = system: relapsed and refractory AML; assay: INT-17 Phase 2 tipifarnib study
# Protocol: (§1) Clinical studies with tipifarnib were performed in newly diagnosed elderly patients with poor risk AML (CTEP-20, Phase 2) and relapsed and refractory AML (INT-17, Phase 2). Patient selection in these studies was not based on genetic markers. Anecdotal evidence of tipifarnib single agent activity was reported. […] Median OS in the overall study was 107 days for the Tipifarnib group and 109 days for the BSC group in AML301.
# [3] = system: elderly patients with newly diagnosed, de novo, or secondary AML; assay: Ph3 study AML301, tipifarnib vs BSC
# Protocol: as §1
# [4] = system: newly diagnosed elderly patients with poor risk AML; assay: CTEP-20 Phase 2 tipifarnib study
# Protocol: as §1
# [5] = 34 study subjects with outcome and expression data
# [6] = CXCR4/CXCR2 expression ratio quartiles 1st-3rd
# [7] = bone marrow CXCR4/CXCR2 expression ratio in the upper quartile
compound,measurement,setting,value
Cn1cncc1[C@@](N)(c1ccc(Cl)cc1)c1ccc2c(c1)c(-c1cccc(Cl)c1)cc(=O)n2C [tipifarnib],conversion to transfusion independence (TI),"[1]; 67 transfusion dependent (TD) subjects, 300 mg bid, 3 weeks on/1 week off",16%
same,conversion to transfusion independence,[1]; MDS subjects with neutropenia and high peripheral blast cell count >1%,11%
same,conversion to transfusion independence,[1]; MDS subjects with neutropenia and low peripheral blast cell count ≤1%,38%
same,conversion to transfusion independence,"[1]; TD MDS subjects with moderate to severe neutropenia (ANC <1,000 cells/μl)",30%
same,conversion to transfusion independence,"[1]; TD MDS subjects without moderate to severe neutropenia (ANC ≥1,000 cells/μl)",5%
same,persistence of RBC and platelet transfusion independence,"[1]; exemplary MDS subject, ANC at screening=400 cells/μl, 300 mg bid, 3 weeks on/1 week off",308 days
same,overall survival,[2]; 57 subjects with CXCR4/CXCR2 ratio data,87 days
same,median PFS,"[2]; AML subjects overexpressing CXCR4, N=8",143 days
same,median PFS,"[2]; AML subjects with relatively lower levels of CXCR4 expression, N=49",29 days
same,Median survival,[2]; CXCR4/CXCR2 quintile group 1,56 days
same,Median survival,[2]; CXCR4/CXCR2 quintile group 2,78 days
same,Median survival,[2]; CXCR4/CXCR2 quintile group 3,44 days
same,Median survival,[2]; CXCR4/CXCR2 quintile group 4,105 days
same,Median survival,[2]; CXCR4/CXCR2 quintile group 5,182 days
same,"HR, 5th quintile of CXCR4/CXCR2 ratio vs rest",[2]; p=0.04,0.52
same,Median survival,[2]; rest of the subjects (not 5th quintile of CXCR4/CXCR2 ratio),74 days
same,"hazard ratio, tipifarnib vs reference therapy","[3]; ANC/WBC<0.3 and marrow blasts>60%, N=110, P=0.08",0.67
same,Median survival,"[3]; ANC/WBC<0.4, WBC>2, platelets>20, N=135",146 days
same,"hazard ratio, tipifarnib vs BSC","[3]; ANC/WBC<0.4, WBC>2, platelets>20, N=135, P=0.046",0.7
same,median progression free survival (PFS),"[3]; BMR<0.1 prior to treatment, N=73",83 days
same,median PFS,"[3]; BMR≥0.1 prior to treatment, N=140",60 days
same,Median OS,[3]; overall study,107 days
same,"Hazards ratio, Tipifarnib compared with BSC","[3]; overall study, N=457, non significant",1.02
same,Median survival,"[3]; subset with high BM blasts (>40%) and low peripheral blasts (<10%), N=82",201 days
same,"HR, tipifarnib vs BSC","[3]; subset with high BM blasts (>40%) and low peripheral blasts (<10%), N=82, P=0.019",0.58
same,Median overall PFS,[4]; [5],84 days
same,Median overall survival,[4]; [5],233 days
same,median progression free survival (PFS),"[4]; BMR<0.1 prior to treatment, N=57",93 days
same,median PFS,"[4]; BMR≥0.1 prior to treatment, N=84",47 days
same,"Median survival (FIG. 7A, PFS probabilities)",[4]; [6],67 days
same,Median survival (FIG. 7B),[4]; [6],179 days
same,"HR (FIG. 7B, survival), upper quartile vs quartiles 1st-3rd","[4]; CXCR4/CXCR2 expression ratio, p=0.07",0.26
same,"HR (FIG. 7A, PFS), upper quartile vs quartiles 1st-3rd","[4]; CXCR4/CXCR2 expression ratio, p=0.09",0.44
same,"Median survival (FIG. 7A, PFS probabilities)",[4]; [7],406 days
same,Median survival (FIG. 7B),[4]; [7],728 days
